Literature values as cited in patent publication US7662599B2, “Nucleic acids and polypeptides involved in the production of cryptophycin” (priority 2004, dated 2010).

Details: comparison in words

## COc1ccc(C[C@H]2NC(=O)/C=C/C[C@@H]([C@H](C)[C@H]3O[C@@H]3c3ccccc3)OC(=O)[C@H](CC(C)C)OC(=O)[C@H](C)CNC2=O)cc1Cl [Cryptophycin 1]
  activity relative to other cryptophycins: the most active natural compound
